According to ChEMBL document CHEMBL2311520, “Total synthesis of AMF-26, an antitumor agent for inhibition of the Golgi system, targeting ADP-ribosylation factor 1” (J Med Chem, 2013):
Calls of active or inactive are those of the source. The calls are words filed in the database; no cut-off is given here.

What was measured:
HBC4 = experiment: Induction of golgi disassembly in human HBC4 cells assessed as presence of GBF1 in cytoplasm at 0.1 to 1 uM after 1 hr by immunofluorescence microscopy; type: functional, cell-based
BSY-1 = experiment: Induction of golgi disassembly in human BSY1 cells assessed as presence of GBF1 in cytoplasm at 0.1 to 1 uM after 1 hr by immunofluorescence microscopy; type: functional, cell-based
[1] = Induction of golgi disassembly in human HBC4 cells assessed as presence of GBF1 in cytoplasm after 1 hr by immunofluorescence microscopy; type: functional, cell-based
[2] = Induction of golgi disassembly in human BSY1 cells assessed as presence of GBF1 in cytoplasm after 1 hr by immunofluorescence microscopy; type: functional, cell-based; details: bsy-1
[3] = Growth inhibition of human HBC4 cells after 48 hrs by Sulforhodamine B assay; type: functional
[4] = Growth inhibition of human BSY1 cells after 48 hrs by Sulforhodamine B assay; type: functional; details: BSY-1, 48 h
PC-3 = experiment: Growth inhibition of human PC3 cells after 48 hrs by Sulforhodamine B assay; type: functional; details: PC-3, 48 h
DU-145 = experiment: Growth inhibition of human DU145 cells after 48 hrs by Sulforhodamine B assay; type: functional; details: DU-145, 48 h
MKN-74 = experiment: Growth inhibition of human MKN74 cells after 48 hrs by Sulforhodamine B assay; type: functional; details: MKN-74, 48 h
MKN-7 = experiment: Growth inhibition of human MKN7 cells after 48 hrs by Sulforhodamine B assay; type: functional; details: MKN-7, 48 h
MKN-28 = experiment: Growth inhibition of human MKN28 cells after 48 hrs by Sulforhodamine B assay; type: functional; details: MKN-28, 48 h
St-4 = experiment: Growth inhibition of human St-4 cells after 48 hrs by Sulforhodamine B assay; type: functional; details: St-4, 48 h
[5] = Growth inhibition of human RXF631L cells after 48 hrs by Sulforhodamine B assay; type: functional; details: RXF 631, 48 h
ACHN = experiment: Growth inhibition of human ACHN cells after 48 hrs by Sulforhodamine B assay; type: functional
SK-OV-3 = experiment: Growth inhibition of human SKOV3 cells after 48 hrs by Sulforhodamine B assay; type: functional; details: SK-OV-3, 48 h
OVCAR-3 = experiment: Growth inhibition of human OVCAR3 cells after 48 hrs by Sulforhodamine B assay; type: functional; details: OVCAR-3, 48 h
OVCAR-5 = experiment: Growth inhibition of human OVCAR5 cells after 48 hrs by Sulforhodamine B assay; type: functional; details: OVCAR-5, 48 h
LOX IMVI = experiment: Growth inhibition of human LOXIMVI cells after 48 hrs by Sulforhodamine B assay; type: functional
DMS-114 = experiment: Growth inhibition of human DMS114 cells after 48 hrs by Sulforhodamine B assay; type: functional; details: DMS-114, 48 h
A549 = experiment: Growth inhibition of human A549 cells after 48 hrs by Sulforhodamine B assay; type: functional; details: A549, 48 h
DMS-273 = experiment: Growth inhibition of human DMS273 cells after 48 hrs by Sulforhodamine B assay; type: functional; details: DMS-273, 48 h
NCI-H460 = experiment: Growth inhibition of human NCI-H460 cells after 48 hrs by Sulforhodamine B assay; type: functional; details: NCI-H460, 48 h
NCI-H522 = experiment: Growth inhibition of human NCI-H522 cells after 48 hrs by Sulforhodamine B assay; type: functional; details: NCI-H522, 48 h
NCI-H23 = experiment: Growth inhibition of human NCI-H23 cells after 48 hrs by Sulforhodamine B assay; type: functional; details: NCI-H23, 48 h
HCT-116 = experiment: Growth inhibition of human HCT116 cells after 48 hrs by Sulforhodamine B assay; type: functional; details: HCT-116, 48 h
HCT-15 = experiment: Growth inhibition of human HCT15 cells after 48 hrs by Sulforhodamine B assay; type: functional; details: HCT-15, 48 h
SNB-78 = experiment: Growth inhibition of human SNB-78 cells after 48 hrs by Sulforhodamine B assay; type: functional; details: SNB-78, 48 h
[6] = Growth inhibition of human HCC2998 cells after 48 hrs by Sulforhodamine B assay; type: functional; details: HCC 2998, 48 h
SF-539 = experiment: Growth inhibition of human SF539 cells after 48 hrs by Sulforhodamine B assay; type: functional; details: SF-539, 48 h
SF-295 = experiment: Growth inhibition of human SF295 cells after 48 hrs by Sulforhodamine B assay; type: functional; details: SF-295, 48 h
U-251 = experiment: Growth inhibition of human U251 cells after 48 hrs by Sulforhodamine B assay; type: functional; details: U-251, 48 h
SF-268 = experiment: Growth inhibition of human SF268 cells after 48 hrs by Sulforhodamine B assay; type: functional; details: SF-268, 48 h
MCF7 = experiment: Growth inhibition of human MCF7 cells after 48 hrs by Sulforhodamine B assay; type: functional; details: MCF7, 48 h
[7] = Growth inhibition of human HBC5 cells after 48 hrs by Sulforhodamine B assay; type: functional; details: HBC5, 48 h
MKN-45 = experiment: Growth inhibition of human MKN45 cells after 48 hrs by Sulforhodamine B assay; type: functional; details: MKN-45, 48 h
[8] = Growth inhibition of human MKN1 cells after 48 hrs by Sulforhodamine B assay; type: functional; details: MKN-1, 48 h
OVCAR-4 = experiment: Growth inhibition of human OVCAR4 cells after 48 hrs by Sulforhodamine B assay; type: functional; details: OVCAR-4, 48 h
OVCAR-8 = experiment: Growth inhibition of human OVCAR8 cells after 48 hrs by Sulforhodamine B assay; type: functional; details: OVCAR-8, 48 h
NCI-H226 = experiment: Growth inhibition of human NCI-H226 cells after 48 hrs by Sulforhodamine B assay; type: functional; details: NCI-H226, 48 h
KM12 = experiment: Growth inhibition of human KM12 cells after 48 hrs by Sulforhodamine B assay; type: functional; details: KM12, 48 h
HT-29 = experiment: Growth inhibition of human HT-29 cells after 48 hrs by Sulforhodamine B assay; type: functional; details: HT-29, 48 h
SNB-75 = experiment: Growth inhibition of human SNB75 cells after 48 hrs by Sulforhodamine B assay; type: functional; details: SNB-75, 48 h
MDA-MB-231 = experiment: Growth inhibition of human MDA-MB-231 cells after 48 hrs by Sulforhodamine B assay; type: functional; details: MDA-MB-231, 48 h

## CC/C(=C\C=C\[C@@H]1[C@H]2[C@H](C)[C@@H](O)[C@H](C)C[C@@H]2C=C[C@@H]1C)C(=O)NCc1cccnc1
HBC4
  Activity: Active
BSY-1
  Activity: Active
[1]
  EC50: 340 nM
[2]
  EC50: 850 nM
[3]; Homo sapiens, HBC4, 48 h, read-out: GI50
  GI50: 550 nM
[4]; read-out: GI50
  GI50: 190 nM

## C/C(=C\C=C\[C@@H]1[C@H]2[C@H](C)[C@@H](O)[C@H](C)C[C@@H]2C=C[C@@H]1C)C(=O)NCc1cccnc1 (stereo in doubt; form 1)
PC-3; read-out: logGI50 (converted)
  GI50: 45.7 nM
DU-145; read-out: logGI50 (converted)
  GI50: 245 nM
MKN-74; read-out: logGI50 (converted)
  GI50: 56.2 nM
MKN-7; read-out: logGI50 (converted)
  GI50: 50.1 nM
MKN-28; read-out: logGI50 (converted)
  GI50: 79.4 nM
St-4; read-out: logGI50 (converted)
  GI50: 195 nM
[5]; read-out: logGI50 (converted)
  GI50: 53.7 nM
ACHN; read-out: logGI50 (converted)
  GI50: 47.9 nM
SK-OV-3; read-out: logGI50 (converted)
  GI50: 41.7 nM
OVCAR-3; read-out: logGI50 (converted)
  GI50: 33.1 nM
OVCAR-5; read-out: logGI50 (converted)
  GI50: 38.9 nM
LOX IMVI; read-out: logGI50 (converted)
  GI50: 22.9 nM
DMS-114; read-out: logGI50 (converted)
  GI50: 39.8 nM
A549; read-out: logGI50 (converted)
  GI50: 57.5 nM
DMS-273; read-out: logGI50 (converted)
  GI50: 53.7 nM
NCI-H460; read-out: logGI50 (converted)
  GI50: 91.2 nM
NCI-H522; read-out: logGI50 (converted)
  GI50: 123 nM
NCI-H23; read-out: logGI50 (converted)
  GI50: 53.7 nM
HCT-116; read-out: logGI50 (converted)
  GI50: 40.7 nM
HCT-15; read-out: logGI50 (converted)
  GI50: 70.8 nM
SNB-78; read-out: logGI50 (converted)
  GI50: 51.3 nM
[6]; read-out: logGI50 (converted)
  GI50: 39.8 nM
SF-539; read-out: logGI50 (converted)
  GI50: 52.5 nM
SF-295; read-out: logGI50 (converted)
  GI50: 58.9 nM
U-251; read-out: logGI50 (converted)
  GI50: 58.9 nM
SF-268; read-out: logGI50 (converted)
  GI50: 44.7 nM
MCF7; read-out: logGI50 (converted)
  GI50: 42.7 nM
[7]; read-out: logGI50 (converted)
  GI50: 34.7 nM
[3]; read-out: logGI50 (converted)
  GI50: 41.7 nM
MKN-45; read-out: logGI50 (converted)
  GI50: 31.6 nM
[8]; read-out: logGI50 (converted)
  GI50: 30.2 nM
OVCAR-4; read-out: logGI50 (converted)
  GI50: 31.6 nM
OVCAR-8; read-out: logGI50 (converted)
  GI50: 39.8 nM
NCI-H226; read-out: logGI50 (converted)
  GI50: 23.4 nM
KM12; read-out: logGI50 (converted)
  GI50: 35.5 nM
HT-29; read-out: logGI50 (converted)
  GI50: 33.9 nM
SNB-75; read-out: logGI50 (converted)
  GI50: 23.4 nM
MDA-MB-231; read-out: logGI50 (converted)
  GI50: 24 nM
[4]; read-out: logGI50 (converted)
  GI50: 12.6 nM

## C/C(=C\C=C\[C@@H]1[C@H]2[C@H](C)[C@@H](O)[C@H](C)C[C@@H]2C=C[C@@H]1C)C(=O)NCc1cccnc1 (stereo in doubt; form 2)
PC-3; read-out: pGI50 (converted)
  GI50: 46.8 nM
DU-145; read-out: pGI50 (converted)
  GI50: 219 nM
MKN-74; read-out: pGI50 (converted)
  GI50: 81.3 nM
MKN-7; read-out: pGI50 (converted)
  GI50: 66.1 nM
MKN-28; read-out: pGI50 (converted)
  GI50: 83.2 nM
St-4; read-out: pGI50 (converted)
  GI50: 214 nM
[5]; read-out: pGI50 (converted)
  GI50: 112 nM
ACHN; read-out: pGI50 (converted)
  GI50: 81.3 nM
SK-OV-3; read-out: pGI50 (converted)
  GI50: 44.7 nM
OVCAR-3; read-out: pGI50 (converted)
  GI50: 46.8 nM
OVCAR-5; read-out: pGI50 (converted)
  GI50: 41.7 nM
LOX IMVI; read-out: GI50
  GI50: 33.1 nM
LOX IMVI; read-out: pGI50 (converted)
  GI50: 33.1 nM
DMS-114; read-out: pGI50 (converted)
  GI50: 52.5 nM
A549; read-out: pGI50 (converted)
  GI50: 51.3 nM
DMS-273; read-out: pGI50 (converted)
  GI50: 79.4 nM
NCI-H460; read-out: pGI50 (converted)
  GI50: 174 nM
NCI-H522; read-out: pGI50 (converted)
  GI50: 191 nM
NCI-H23; read-out: pGI50 (converted)
  GI50: 60.3 nM
HCT-116; read-out: pGI50 (converted)
  GI50: 74.1 nM
HCT-15; read-out: pGI50 (converted)
  GI50: 126 nM
SNB-78; read-out: pGI50 (converted)
  GI50: 58.9 nM
[6]; read-out: pGI50 (converted)
  GI50: 47.9 nM
SF-539; read-out: pGI50 (converted)
  GI50: 58.9 nM
SF-295; read-out: pGI50 (converted)
  GI50: 100 nM
U-251; read-out: pGI50 (converted)
  GI50: 70.8 nM
SF-268; read-out: pGI50 (converted)
  GI50: 51.3 nM
MCF7; read-out: pGI50 (converted)
  GI50: 47.9 nM
[7]; read-out: pGI50 (converted)
  GI50: 41.7 nM
[3]; Homo sapiens, HBC4, 48 h, read-out: logGI50 (converted)
  GI50: 46.8 nM
MKN-45; read-out: GI50
  GI50: 27.5 nM
MKN-45; read-out: pGI50 (converted)
  GI50: 27.5 nM
[8]; read-out: GI50
  GI50: 36.3 nM
[8]; read-out: pGI50 (converted)
  GI50: 36.3 nM
OVCAR-4; read-out: GI50
  GI50: 34.7 nM
OVCAR-4; read-out: pGI50 (converted)
  GI50: 34.7 nM
OVCAR-8; read-out: GI50
  GI50: 37.2 nM
OVCAR-8; read-out: pGI50 (converted)
  GI50: 37.1 nM
NCI-H226; read-out: GI50
  GI50: 30.9 nM
NCI-H226; read-out: pGI50 (converted)
  GI50: 30.9 nM
KM12; read-out: GI50
  GI50: 35.5 nM
KM12; read-out: pGI50 (converted)
  GI50: 35.5 nM
HT-29; read-out: GI50
  GI50: 33.9 nM
HT-29; read-out: pGI50 (converted)
  GI50: 33.9 nM
SNB-75; read-out: GI50
  GI50: 30.2 nM
SNB-75; read-out: pGI50 (converted)
  GI50: 30.2 nM
MDA-MB-231; read-out: GI50
  GI50: 22.9 nM
MDA-MB-231; read-out: pGI50 (converted)
  GI50: 22.9 nM
[4]; read-out: GI50
  GI50: 18.2 nM
[4]; read-out: pGI50 (converted)
  GI50: 18.2 nM
